This is an account of results in ChEMBL document CHEMBL1159383, “Tasipeptins A and B: new cytotoxic depsipeptides from the marine cyanobacterium Symploca sp” (J Nat Prod, 2003).

In the test the test system is KB. Nature of the test: Cytotoxicity against human KB cells. It counts as functional, cell-based.

Broadly, the IC50 is the concentration at which inhibition is half-maximal. Compound `CCCC(=O)N[C@H](C(=O)N[C@@H]1C(=O)N[C@@H](CC(C)C)C(=O)N[C@H]2CC[C@@H](O)N(C2=O)[C@@H](CC(C)C)C(=O)N(C)[C@@H](Cc2ccccc2)C(=O)N[C@@H](C(C)C)C(=O)O[C@@H]1C)C(C)C` [TASIPEPTIN A] came in with an IC50 of 0.93 µM. `CCCC(=O)N[C@@H]1C(=O)N[C@@H](CC(C)C)C(=O)N[C@H]2CC[C@@H](O)N(C2=O)[C@@H](CC(C)C)C(=O)N(C)[C@@H](Cc2ccccc2)C(=O)N[C@@H](C(C)C)C(=O)O[C@@H]1C` [TASIPEPTIN B] registered an IC50 of 0.82 µM.
